Results published in ChEMBL document CHEMBL1122424, “S-carbobenzoxyglutathione: a competitive inhibitor of mammalian glyoxalase II” (J Med Chem, 1983).
Calls of active or inactive are those of the source. No cut-off for these calls is given here.

Experiments:
[1] = biological target: T1, Lactoylglutathione lyase (Rattus norvegicus) (UniProt Q6P7Q4); assay: […] inhibitory activity against glyoxalase I in rat liver; no inhibition; format: functional
T1 sequence (whole entry): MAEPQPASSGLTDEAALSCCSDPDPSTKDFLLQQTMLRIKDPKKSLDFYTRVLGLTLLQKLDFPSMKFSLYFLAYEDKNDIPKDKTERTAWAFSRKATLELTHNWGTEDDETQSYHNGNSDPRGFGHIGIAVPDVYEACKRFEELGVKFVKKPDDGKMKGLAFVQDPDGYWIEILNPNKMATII

[2] = biological target: Lactoylglutathione lyase (Mus musculus) (UniProt Q9CPU0); assay: […] inhibitory activity against glyoxalase I in mouse liver; no inhibition; format: functional
[3] = tested on: Lactoylglutathione lyase (Ovis aries); assay: […] inhibitory activity against glyoxalase I in sheep liver; no inhibition
[4] = biological target: Hydroxyacylglutathione hydrolase, mitochondrial (Rattus norvegicus, UniProt O35952); assay: (§1) […] inhibitory activity against glyoxalase II in rat liver
[5] = biological target: T1, Lactoylglutathione lyase (Rattus norvegicus); assay: In vivo inhibitory activity against glyoxalase I in rat liver; format: functional; details: concentration not given here
[6] = biological target: Hydroxyacylglutathione hydrolase, mitochondrial (Rattus norvegicus) (UniProt O35952); assay: as §1; format: functional; details: concentration not given here

Chain of Lactoylglutathione lyase (Mus musculus) (Q9CPU0 2-184 limits assumed): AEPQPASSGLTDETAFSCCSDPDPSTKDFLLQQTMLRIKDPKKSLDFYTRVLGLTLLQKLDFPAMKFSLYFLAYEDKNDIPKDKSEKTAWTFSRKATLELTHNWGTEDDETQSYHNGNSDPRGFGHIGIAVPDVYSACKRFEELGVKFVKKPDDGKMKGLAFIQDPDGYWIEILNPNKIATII

- Activity [1]: inactive
- Activity [2]: inactive
- Activity [3]: inactive
- Ki [4]: 65 µM
- inhibition [5]: < 10%
- inhibition [6]: > 50%
SMILES: N[C@@H](CCC(=O)N[C@@H](CSC(=O)OCc1ccccc1)C(=O)NCC(=O)O)C(=O)O
